Results on three molecules are retold here after patent publication US5238930A, “Alkenoic acid compounds for mechanism-based inactivation of dehydropeptidase activity” (Board of Governors of Wayne State University, priority 1992, dated 1993).

What all share (test): Kinetic analysis of interaction (turnover and inactivation) with porcine renal dipeptidase (dehydropeptidase I)
What all share (format): biochemical

In series [1] the target is T1, porcine dehydropeptidase I (Sus scrofa, UniProt P22412).
T1 construct: Renal dipeptidase from porcine kidney was purified by a slight modification of the literature report; from tissue; host or cells: porcine kidney
T1 sequence (P22412 17-409): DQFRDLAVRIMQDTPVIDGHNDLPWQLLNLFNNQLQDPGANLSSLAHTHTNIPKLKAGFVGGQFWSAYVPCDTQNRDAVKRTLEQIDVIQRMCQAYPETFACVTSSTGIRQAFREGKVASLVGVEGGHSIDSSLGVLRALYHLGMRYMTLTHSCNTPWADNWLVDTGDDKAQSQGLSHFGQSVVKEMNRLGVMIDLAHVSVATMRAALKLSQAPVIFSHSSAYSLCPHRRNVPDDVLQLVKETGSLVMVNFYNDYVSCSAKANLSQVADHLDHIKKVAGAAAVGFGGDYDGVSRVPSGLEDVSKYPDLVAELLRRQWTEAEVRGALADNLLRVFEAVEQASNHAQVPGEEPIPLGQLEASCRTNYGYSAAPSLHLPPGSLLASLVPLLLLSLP
The following applies: for kinact: read-out: kinact (first-order rate constant for inactivation) (converted); for Ki: renal dipeptidase assay with glycinyldehydrophenylalanine as substrate, read-out: Ki (reversible inhibitor constant for the formation of the EI complex). The source says:
(§1) Km is the Michaelis […] for the turnover, and Ki is the reversible inhibitor constant for the formation of the EI complex. The parameters Kcat and Kinact are first-order rate constant for enzymic turnover and inactivation, respectively. The partition ratio is defined as kcat divided by kinact (i.e., kcat/ kinact).
(§2) Renal dipeptidase from porcine kidney was purified by a slight modification of the literature report (Biochem. J. 257, 361 (1989)). The spectrophotometric assay of renal dipeptidase is carried out according to the method of Campbell et al. (Methods Enzymol. 19, 722 (1970)), using glycinyldehydrophenylalanine as substrate. The substrate was synthesized according to the literature report (Synthesis Commun., 234 (1982)).
(§3) The relevant kinetic parameters for interactions of I and III with porcine dehydropeptidase I are given below.

Substrate in series [2]: C=C(NC(=O)CC#N)C(=O)O
Conditions: other: turnover of compound by porcine dehydropeptidase I.
Source text: as §1, §2, §3

Substrate in series [3]: C=C(CC(=O)CC#N)C(=O)O
The following applies: other: turnover of compound by porcine dehydropeptidase I.
Source text: as §1, §2, §3

Entries after “also recorded” stand apart in the source; their conditions may differ.

On to `C=C(NC(=O)CC#N)C(=O)O` [III, 2-Cyanoacetamidoacrylic Acid], for which, in series [1] (porcine dehydropeptidase I), the kinact was 0.00462 s⁻¹ and the Ki turned out to be 18 ± 6 µM.
Turning to `C=C(CC(=O)CC#N)C(=O)O` [I, 2-Methnylene-5-Cyano-4-Oxopentanoic Acid], the “inactivation of dehydropeptidase, overall result in words” value in series [1] (conclusion from the kinetic table) was “very effective inactivators; also recorded: somewhat better than the ketonic compound (I)”. In addition, in series [1] (porcine dehydropeptidase I, kcat divided by kinact), the “kcat/kinact (partition ratio)” value was determined as 217 ± 37. Further, in series [1] (porcine dehydropeptidase I), the kinact was 0.00252 s⁻¹ and the Ki came to 38 ± 1 µM.

B1: porcine dehydropeptidase I (Sus scrofa) (protein)
chain: T1 sequence (P22412 17-409)
notes: Renal dipeptidase from porcine kidney was purified by a slight modification of the literature report; from tissue; host or cells: porcine kidney
Regarding B1, the values for the Km in series [2] and in series [3] were 0.416 mM and 10.3 mM, respectively.
